In patent US4327222A, “3,4-Diarylisoxazol-5-acetic acids and process for making same” (priority 1979, dated 1982):
Entries after “also recorded” stand apart in the source; their conditions may differ. Where two headings read alike, the source gives them in different places.

Assays:
[1] = test system: carrageenin-induced paw edema; assay: Anti-inflammatory: carrageenin-induced paw edema test in the rat (modified Winter et al.); assay type: in vivo; conditions: for ED50: po, read-out: ED50 p.o. Anti-inflammatory (Carrageenin)
[2] = test system: phenylquinone-induced muscular writhing; assay: Analgesic: phenylquinone-induced muscular writhing test in mice (modified Siegmund et al.); assay type: in vivo; conditions: for ED50: Mus musculus, po, read-out: ED50 p.o. Analgesic (Phenylquinone)
yeast-induced fever = assay: Anti-pyretic: yeast-induced fever test in rats; assay type: in vivo; conditions: Rattus norvegicus, po, read-out: ED50 p.o. Anti-Pyretic (Yeast)
rats = assay: in vivo; assay type: in vivo
Experimental: (§1) Acute toxicities are determined in rats and in mice and the LD50 's are calculated according to the method of Litchfield and Wilcoxon, J.Pharmacol.Exp. Therap.

in vivo [3] = conditions: mouse, po, mice, read-out: Acute Toxicity (LD50) p.o.
Experimental: (§2) 138, 405 (1962), both in the rat. […] Acute toxicities are determined in rats and in mice and the LD50 's are calculated according to the method of Litchfield and Wilcoxon, J.Pharmacol.Exp. Therap. 96, 99 (1949).

cotton pellet granuloma = assay: Antigranuloma: cotton pellet granuloma test in the rat; assay type: in vivo
Experimental: as §2

in vivo [4] = assay type: in vivo; conditions: rat, in vivo, po; rats; read-out: Acute Toxicity (LD50) p.o.
Experimental: as §1

Compound	ED50 ([1]; rat, carrageenin paw edema) [mg/kg]	ED50 (yeast-induced fever; rats, yeast-induced fever) [mg/kg]	ED50 ([2]; mice, phenylquinone writhing) [mg/kg]	further results
COc1ccc(-c2noc(CC(=O)O)c2-c2ccc(OC)cc2)cc1 [3,4,-Di(p-methoxyphenyl)isoxazol-5-acetic Acid]				ED50 ([1]; Rattus norvegicus): 25 to 40 mg/kg; anti-inflammatory activity (in words) ([1]; rat, listed as Example 4): remarkable anti-inflammatory and analgesic activities; also recorded: well within the range of the same activities shown for a number of established anti-inflammatory drugs and are markedly superior to the activities of known 3-arylisoxazol-5-acetic acids; ED50 [2]: 1.8 mg/kg; analgesic activity (in words) ([2]; mice, listed as Example 4): remarkable anti-inflammatory and analgesic activities; also recorded: well within the range of the same activities shown for a number of established anti-inflammatory drugs and are markedly superior to the activities of known 3-arylisoxazol-5-acetic acids; ED50 (yeast-induced fever): > 120 mg/kg; therapeutic index LD50/anti-inflammatory ED50 (in words) (rats; LD50 / anti-inflammatory ED50): favourable therapeutic index; order of toxicity (in words) (rats; rats and mice): low order of toxicity; LD50 (in vivo [3]): 1000 mg/kg; activity in antigranuloma test (in words) (cotton pellet granuloma): active in antigranuloma test
O=C(O)Cc1onc(-c2ccccc2)c1-c1ccccc1 [3,4-Diphenylisoxazol-5-acetic Acid]	120	120		LD50 (in vivo [3]): 670 mg/kg
COc1ccc(-c2cc(CC(=O)O)on2)cc1 [3-(p-methoxyphenyl)isoxazol-5-acetic acid]	> 135	> 120	60	
O=C(O)Cc1cc(-c2ccccc2)no1 [3-Phenylisoxazol-5-acetic Acid, 3-phenylisoxazol-5-acetic acid]	70 to 80	> 135	60 to 90	Acute Toxicity p.o. (dose with 100% mortality) (rats; p.o., rats, 100% mortality): 1500 mg/kg
CC(=O)Oc1ccccc1C(=O)O [Aspirin]	60 to 90		70 to 100	LD50 (in vivo [4]): 1740 mg/kg
CC(C)Cc1ccc(C(C)C(=O)O)cc1 (centres unmarked) [Ibuprofen]	15 to 30	15	15 to 25	
COc1ccc2c(c1)c(CC(=O)O)c(C)n2C(=O)c1ccc(Cl)cc1 [Indomethacin]				ED50 ([1]; Rattus norvegicus): 7 to 9 mg/kg; ED50 [2]: < 1 mg/kg; ED50 (yeast-induced fever): 3 to 5 mg/kg; LD50 (in vivo [4]): 27 mg/kg
Cc1cccc(Nc2ccccc2C(=O)O)c1C [Mefenamic Acid]	45 to 55	7.5 to 10	7.5 to 10	
COc1ccc2cc([C@H](C)C(=O)O)ccc2c1 [Naproxen]	10 to 12	15 to 20	7.5 to 10	
COc1ccc(-c2noc(C(OC)C(=O)O)c2-c2ccc(OC)cc2)cc1 (stereo not drawn) [Sodium 3,4-Di(p-methoxyphenyl)isoxazol-5α-methoxyacetate]	120	> 120	60	
CC1=C(CC(=O)O)c2cc(F)ccc2/C1=C\c1ccc([S+](C)[O-])cc1 (centres unmarked) [Sulindac]	20 to 30	7.5 to 10	7.5 to 10	
